These results are taken from patent US8017784B2, “Substituted sulfoxide compounds, methods for preparing the same and use thereof” (Livzon Pharmaceutical Group, Inc., priority 2005, dated 2011).

The subject of this experiment is Acute Gastric Ulcer of Rats. Put plainly: Effect on acute gastric ulcer of rats (pyloric ligation method, Shay method). As to conditions: for Average Volume of Gastric Juice / Index of Ulcer (sum of the long diameter of each ulcer) / Inhibition Ratio of gastric juice / Inhibition Ratio of index of ulcer: SD female rats, 3 mg/kg via duodenum; for Average Volume of Gastric Juice / Index of Ulcer (sum of the long diameter of each ulcer): 6 hours after dosing; for Inhibition Ratio of gastric juice / Inhibition Ratio of index of ulcer: 6 hours, versus control group; for Inhibition of gastric juice secretion and ulceration compared with racemate: rats, result in words. In kind it is in vivo. The procedure:
The effect of optically pure (+)/(−)-5-(1H-pyrrol-1-yl)-2-[[(4-methoxy-3-methyl-2-pyridyl)-methyl]sulfinyl]-1-hydro-benzimidazole on the acute gastric ulcer of rats were investigated using a pyloric ligation method (Shay method), and the results were compared with a normal control group and a racemate group. The specific test methods were as follows.
Twenty-six healthy SD female adult rats were divided randomly into 4 groups and fasted, except water, for 24 hours. Each rat was then anesthesized with 30 mg/kg Sodium Pentobarbital and subjected to pyloric ligation. After that, 3 groups of rats (treated group) were administered immediately via dodecadactylon with a racemate, a levo-enantiomer and a dextro-enantiomer of 5-(1H-pyrrol-1-yl)-2-[[(4-methoxy-3-methyl-2-pyridyl)-methyl]sulfinyl]-1-hydro-benzimidazole, respectively, at a dose of 3 mg/kg, and the other group (control group) is administered with the same volume of solvent.
All rats were then fasted including water for 6 hours followed by being sacrificed. The stomach was removed from rats after cardiac orifice ligation, and the volume of gastric juice was collected. After being fixed with 10% formalin solution, the stomach was incised along the greater curvature of stomach, the gastric wall was unwraped, and the degree and number of ulcers of the gastric mucosa were observed visually. Sum of the long diameter of each ulcer was defined as the index of ulcer. All rats were housed in metabolic cages during the test.

In the case of `COc1ccnc(C[S+]([O-])c2nc3cc(-n4cccc4)ccc3[nH]2)c1C` (racemic) [Racemate, 5-(1H-pyrrol-1-yl)-2-[[(4-methoxy-3-methyl-2-pyridyl)-methyl]sulfinyl]-1-hydro-benzimidazole, reference compound], for the setting “3 mg/kg”, the “Average Volume of Gastric Juice” value came to 3.2 ± 2.3 mL, the “Index of Ulcer (sum of the long diameter of each ulcer)” value was 14 ± 8 mm, the “Inhibition Ratio of gastric juice” value was 30.8% and the “Inhibition Ratio of index of ulcer” value stood at 41.8%.

As for `COc1ccnc(C[S+]([O-])c2nc3cc(-n4cccc4)ccc3[nH]2)c1C` (single isomer, unassigned; (+)) [Dextro-enantiomer, (+)-5-(1H-pyrrol-1-yl)-2-[[(4-methoxy-3-methyl-2-pyridyl)-methyl]sulfinyl]-1-hydro-benzimidazole], the “Inhibition Ratio of index of ulcer” value was 75.6%. Moreover, where the note is “3 mg/kg”, the “Average Volume of Gastric Juice” value came out at 2.6 ± 1.1 mL; the “Index of Ulcer (sum of the long diameter of each ulcer)” value came to 6 ± 7 mm; the “Inhibition Ratio of gastric juice” value came out at 43.2%; the “Inhibition of gastric juice secretion and ulceration compared with racemate” value was “more effective in inhibiting gastric juice secretion and ulceration as compared with their racemate”.

Turning to `COc1ccnc(C[S+]([O-])c2nc3cc(-n4cccc4)ccc3[nH]2)c1C` (single isomer, unassigned; (-)) [Levo-enantiomer, (−)-5-(1H-pyrrol-1-yl)-2-[[(4-methoxy-3-methyl-2-pyridyl)-methyl]sulfinyl]-1-hydro-benzimidazole], the “Inhibition Ratio of index of ulcer” value amounted to 75.6%. For the setting “3 mg/kg”, the “Average Volume of Gastric Juice” value turned out to be 1.4 ± 1.0 mL; the “Index of Ulcer (sum of the long diameter of each ulcer)” value is listed as 6 ± 6 mm; the “Inhibition Ratio of gastric juice” value is listed as 68.3%; the “Inhibition of gastric juice secretion and ulceration compared with racemate” value was “more effective in inhibiting gastric juice secretion and ulceration as compared with their racemate”.
